According to ChEMBL document CHEMBL1146244, “Stictic acid derivatives from the lichen Usnea articulata and their antioxidant activities” (J Nat Prod, 2007):

Columns and labels:
[1] = DPPH radical scavenging activity at 3000 uM; type: functional
[2] = Superoxide radical scavenging activity; type: functional

Row | Structure (SMILES) | Activity [1] | IC50 [2]
1 | COc1cc(C)c2c(c1C=O)Oc1c(C=O)c(C(=O)O)c(O)c(C)c1OC2=O | 30% | –
2 | COc1cc(C)c2c(c1CO)Oc1c3c(c(O)c(C)c1OC2=O)C(=O)OC3 | 18% | –
3 | Cc1cc(O)c(C=O)c2c1C(=O)Oc1c(COC(=O)/C=C/C(=O)O)c(O)c(C(=O)O)c(C)c1O2 [FUMARPROTOCETRARIC ACID] | 20% | 580 µM
4 | Cc1cc(O)c(C=O)c2c1C(=O)Oc1c(C)c(O)c3c(c1O2)C(O)OC3=O (stereo not given) [NORSTICTIC ACID] | – | 566 µM
